Laboratory results as given in article PMC11406361, “Several orphan solute carriers functionally identified as organic cation transporters: Substrates specificity compared with known cation transporters” (The Journal of Biological Chemistry, 2024).

Tests used:
[1] = target: T1, SLC22A15 (Homo sapiens, UniProt Q8IZD6); experiment: Uptake ratio screen, SLC22A15-overexpressing HEK293 over empty vector cells; type: cell-based; settings: 2.5 μM (nicotine 10 μM), 2 min
T1 construct: by amplifying the entire gene-of-interest within the HEK293 genome via a long-range PCR
T1 sequence (Q8IZD6 whole entry): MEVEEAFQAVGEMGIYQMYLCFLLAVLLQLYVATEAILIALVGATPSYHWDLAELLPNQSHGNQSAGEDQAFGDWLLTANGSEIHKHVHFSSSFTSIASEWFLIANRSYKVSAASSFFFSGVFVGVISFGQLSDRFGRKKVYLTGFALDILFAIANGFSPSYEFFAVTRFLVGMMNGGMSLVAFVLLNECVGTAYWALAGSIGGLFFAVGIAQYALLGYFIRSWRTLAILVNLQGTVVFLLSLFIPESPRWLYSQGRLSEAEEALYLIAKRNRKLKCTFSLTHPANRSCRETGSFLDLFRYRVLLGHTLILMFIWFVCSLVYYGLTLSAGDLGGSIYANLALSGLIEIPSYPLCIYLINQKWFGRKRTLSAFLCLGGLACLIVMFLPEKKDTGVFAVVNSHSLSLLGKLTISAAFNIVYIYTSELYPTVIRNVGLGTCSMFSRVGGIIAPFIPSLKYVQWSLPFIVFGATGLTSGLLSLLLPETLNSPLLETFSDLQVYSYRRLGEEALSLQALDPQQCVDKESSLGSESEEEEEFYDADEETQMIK
Procedure: (§1) Typically discussed substrates of the proton organic-cation antiporter ([14]) are highlighted in dark green in Figure 1.
(§2) In preparation for transport experiments, 24-well plates were pre-coated with poly-D-lysine (Sigma-Aldrich) and 300,000 cells were plated per well and incubated for 48 h. Firstly, the 24-well plate was placed on a heating plate at 37 °C, and the cells were washed with 37 °C HBSS^+ buffer (Hank’s balanced salt solution supplemented with 10 mM Hepes and adjusted to pH 7.4; Thermo Fisher Scientific). The substance-of-interest, which was diluted in 37 °C HBSS^+ to a desired concentration, was added to the cells for exactly 2 min. […] The uptake was stopped with ice-cold HBSS^+, and the 24-well plate was removed from the heating plate. The cells were washed twice with the cold HBSS^+ before they were lysed for 15 min with 80% (v/v) acetonitrile containing the respective internal standard for mass spectrometry. For variations in seeded cell numbers between the cell lines, several wells were lysed in RIPA buffer and used for total protein quantification using a bicinchoninic assay ([74]) and bovine serum albumin as calibration.
(§3) The intracellular drug concentrations after transport experiments were analyzed by high-performance liquid chromatography coupled to tandem mass spectrometry analysis. The HPLC consisted of a Shimadzu Nexera HPLC System with a SIL-30AC autosampler, a LC-30AD pump, a CTO-20AC column oven, and a CBM-20A controller (Shimadzu). The reverse-phase chromatography of compounds was accomplished with a Brownlee SPP RP-Amide column with 4.6 × 100 mm inner dimensions, a particle size of 2.7 μm, and a preceding Phenomenex C-18 guard column. The mobile phase was composed of an organic additive with acetonitrile:methanol 6:1 (v/v) in total concentrations between 3% and 50% (v/v) and 0.1% (v/v) formic acid in the aqueous component of the eluent. During separation, the column oven was held at 40 °C and the mobile phase was maintained at a flow rate of 300 or 400 μl/min. After separation, the detection of substances was performed with an API 4000 tandem mass spectrometer (AB SCIEX, https://sciex.com/support/software-support/software-downloads), followed by quantification of results with the Analyst software (AB SCIEX, version 1.6.2). The composition of chromatographic conditions, as well as detailed mass spectrometric detection parameters, are listed in Table S5.
(§4) Transport-mediated net uptake was determined as fold-increase of transporter-overexpressing cells over empty vector–transfected control cells.

[2] = target: T2, SLC19A2 (Homo sapiens, UniProt O60779); experiment: Uptake ratio screen, SLC19A2-overexpressing HEK293 over empty vector cells; type: cell-based; settings: 2.5 μM, 2 min
T2 construct: expressed in transfected cells
T2 sequence (O60779 1-497): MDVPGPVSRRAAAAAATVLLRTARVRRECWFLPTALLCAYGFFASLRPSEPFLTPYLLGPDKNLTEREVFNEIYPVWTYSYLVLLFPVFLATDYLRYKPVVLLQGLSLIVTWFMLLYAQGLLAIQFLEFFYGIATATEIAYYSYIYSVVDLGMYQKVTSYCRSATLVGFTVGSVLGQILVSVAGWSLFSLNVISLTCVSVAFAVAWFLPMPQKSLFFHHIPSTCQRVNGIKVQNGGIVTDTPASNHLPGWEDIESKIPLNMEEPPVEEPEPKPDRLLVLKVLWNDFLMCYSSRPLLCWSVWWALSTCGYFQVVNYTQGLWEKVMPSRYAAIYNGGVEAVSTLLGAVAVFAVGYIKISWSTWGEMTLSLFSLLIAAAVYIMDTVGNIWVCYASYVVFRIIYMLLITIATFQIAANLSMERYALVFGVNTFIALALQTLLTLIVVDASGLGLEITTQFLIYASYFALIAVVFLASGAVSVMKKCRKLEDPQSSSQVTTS
Procedure: as §1, §2
(§5) The intracellular drug concentrations after transport experiments were analyzed by high-performance liquid chromatography coupled to tandem mass spectrometry analysis. The HPLC consisted of a Shimadzu Nexera HPLC System with a SIL-30AC autosampler, a LC-30AD pump, a CTO-20AC column oven, and a CBM-20A controller (Shimadzu). The reverse-phase chromatography of compounds was accomplished with a Brownlee SPP RP-Amide column with 4.6 × 100 mm inner dimensions, a particle size of 2.7 μm, and a preceding Phenomenex C-18 guard column. […] After separation, the detection of substances was performed with an API 4000 tandem mass spectrometer (AB SCIEX, https://sciex.com/support/software-support/software-downloads), followed by quantification of results with the Analyst software (AB SCIEX, version 1.6.2). […]
as §4

[3] = target: SLC35G3 (Homo sapiens, UniProt Q8N808); experiment: Uptake ratio screen, SLC35G3-overexpressing HEK293 over empty vector cells; type: cell-based; set-up: by amplifying the entire gene-of-interest within the HEK293 genome via a long-range PCR; settings: 2.5 μM substrate, 2 min, HEK293
Sequence of SLC35G3 (Q8N808 whole entry): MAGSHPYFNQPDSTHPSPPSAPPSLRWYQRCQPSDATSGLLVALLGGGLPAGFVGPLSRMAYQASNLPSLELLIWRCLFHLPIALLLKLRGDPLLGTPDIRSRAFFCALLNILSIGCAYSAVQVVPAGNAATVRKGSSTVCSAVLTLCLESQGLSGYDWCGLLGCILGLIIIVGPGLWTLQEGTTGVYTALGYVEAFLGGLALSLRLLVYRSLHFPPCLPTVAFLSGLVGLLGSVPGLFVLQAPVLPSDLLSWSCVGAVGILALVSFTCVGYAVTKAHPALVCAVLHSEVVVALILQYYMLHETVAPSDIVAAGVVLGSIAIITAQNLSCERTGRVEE

[4] = target: T3, SLC35E2A (Homo sapiens, UniProt P0CK97); experiment: Uptake ratio screen, SLC35E2A-overexpressing HEK293 over empty vector cells; type: cell-based; set-up: by amplifying the entire gene-of-interest within the HEK293 genome via a long-range PCR; settings: 2.5 μM, 2 min
T3 sequence (P0CK97 whole entry): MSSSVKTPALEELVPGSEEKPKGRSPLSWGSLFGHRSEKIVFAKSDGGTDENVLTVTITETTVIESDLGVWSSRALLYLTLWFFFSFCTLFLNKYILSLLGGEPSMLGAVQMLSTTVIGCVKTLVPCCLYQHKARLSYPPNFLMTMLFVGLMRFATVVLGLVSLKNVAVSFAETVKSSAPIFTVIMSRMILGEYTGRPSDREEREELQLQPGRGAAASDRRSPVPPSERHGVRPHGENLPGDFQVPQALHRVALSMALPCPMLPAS
Procedure: as §1, §2, §5, §4

[5] = target: T3, SLC35E2A; settings: ratio of Vmax over KM
[6] = target: SLC35F3 (Homo sapiens, UniProt Q8IY50); settings: 2.5 μM, 2 min, HEK293
Sequence of SLC35F3 (Q8IY50 whole entry): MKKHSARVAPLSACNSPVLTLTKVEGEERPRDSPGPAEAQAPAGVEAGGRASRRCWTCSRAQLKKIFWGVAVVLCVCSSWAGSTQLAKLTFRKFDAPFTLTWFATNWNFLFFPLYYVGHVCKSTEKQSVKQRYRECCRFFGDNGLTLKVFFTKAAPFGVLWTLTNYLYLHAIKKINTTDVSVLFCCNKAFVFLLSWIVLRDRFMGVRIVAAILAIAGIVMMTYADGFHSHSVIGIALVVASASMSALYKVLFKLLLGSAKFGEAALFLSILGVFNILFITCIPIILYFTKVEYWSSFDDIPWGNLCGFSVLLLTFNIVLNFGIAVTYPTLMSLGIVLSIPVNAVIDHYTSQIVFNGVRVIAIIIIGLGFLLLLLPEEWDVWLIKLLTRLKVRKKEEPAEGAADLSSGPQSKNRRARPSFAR
Procedure: as §1, §2, §3, §4

[7] = target: T4, SLC35F4 (Homo sapiens, UniProt A4IF30); experiment: Uptake ratio screen, SLC35F4-overexpressing HEK293 over empty vector cells; type: cell-based; set-up: by amplifying the entire gene-of-interest within the HEK293 genome via a long-range PCR; settings: 2.5 μM, 2 min
T4 sequence (A4IF30 1-521): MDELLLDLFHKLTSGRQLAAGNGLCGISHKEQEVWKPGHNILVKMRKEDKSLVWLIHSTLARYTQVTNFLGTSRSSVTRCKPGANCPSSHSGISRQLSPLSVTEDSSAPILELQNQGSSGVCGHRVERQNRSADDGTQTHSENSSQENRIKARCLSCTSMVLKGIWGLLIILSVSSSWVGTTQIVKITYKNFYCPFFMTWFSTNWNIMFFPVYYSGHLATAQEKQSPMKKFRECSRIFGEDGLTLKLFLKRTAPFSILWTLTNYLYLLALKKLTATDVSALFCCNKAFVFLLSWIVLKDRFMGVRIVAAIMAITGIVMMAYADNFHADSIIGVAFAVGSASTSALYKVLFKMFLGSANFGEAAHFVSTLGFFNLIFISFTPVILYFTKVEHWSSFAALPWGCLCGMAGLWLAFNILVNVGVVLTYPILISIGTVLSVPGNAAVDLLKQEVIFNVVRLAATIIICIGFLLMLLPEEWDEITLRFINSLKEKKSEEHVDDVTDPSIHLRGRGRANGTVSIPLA
Procedure: as §1, §2, §3, §4

[8] = target: T5, SLC47A1 (Homo sapiens, UniProt Q96FL8); experiment: Uptake ratio screen, SLC47A1-overexpressing HEK293 over empty vector cells; type: cell-based; settings: 2.5 μM, 2 min
T5 sequence (Q96FL8 1-570): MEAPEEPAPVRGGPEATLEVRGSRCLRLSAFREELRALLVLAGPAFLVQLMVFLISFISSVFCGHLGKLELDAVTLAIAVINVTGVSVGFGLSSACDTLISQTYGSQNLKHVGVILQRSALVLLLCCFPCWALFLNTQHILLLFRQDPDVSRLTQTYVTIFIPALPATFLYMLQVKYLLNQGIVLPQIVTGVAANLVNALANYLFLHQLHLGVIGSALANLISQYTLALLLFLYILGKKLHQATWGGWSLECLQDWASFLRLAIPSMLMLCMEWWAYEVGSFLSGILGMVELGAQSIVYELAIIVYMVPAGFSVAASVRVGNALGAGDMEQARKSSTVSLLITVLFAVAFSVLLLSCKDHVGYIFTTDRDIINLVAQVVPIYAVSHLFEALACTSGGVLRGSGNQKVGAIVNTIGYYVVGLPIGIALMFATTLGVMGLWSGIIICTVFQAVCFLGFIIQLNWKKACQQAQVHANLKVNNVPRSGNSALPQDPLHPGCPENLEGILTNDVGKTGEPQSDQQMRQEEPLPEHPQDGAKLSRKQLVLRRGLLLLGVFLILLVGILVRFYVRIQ
Procedure: as §1, §2, §5, §4

[9] = target: SLC47A2 (Homo sapiens, UniProt Q86VL8); experiment: Uptake ratio screen, SLC47A2-overexpressing HEK293 over empty vector cells; type: cell-based; settings: 2.5 μM, 2 min
Sequence of SLC47A2 (Q86VL8 1-566 isoform Q86VL8-3): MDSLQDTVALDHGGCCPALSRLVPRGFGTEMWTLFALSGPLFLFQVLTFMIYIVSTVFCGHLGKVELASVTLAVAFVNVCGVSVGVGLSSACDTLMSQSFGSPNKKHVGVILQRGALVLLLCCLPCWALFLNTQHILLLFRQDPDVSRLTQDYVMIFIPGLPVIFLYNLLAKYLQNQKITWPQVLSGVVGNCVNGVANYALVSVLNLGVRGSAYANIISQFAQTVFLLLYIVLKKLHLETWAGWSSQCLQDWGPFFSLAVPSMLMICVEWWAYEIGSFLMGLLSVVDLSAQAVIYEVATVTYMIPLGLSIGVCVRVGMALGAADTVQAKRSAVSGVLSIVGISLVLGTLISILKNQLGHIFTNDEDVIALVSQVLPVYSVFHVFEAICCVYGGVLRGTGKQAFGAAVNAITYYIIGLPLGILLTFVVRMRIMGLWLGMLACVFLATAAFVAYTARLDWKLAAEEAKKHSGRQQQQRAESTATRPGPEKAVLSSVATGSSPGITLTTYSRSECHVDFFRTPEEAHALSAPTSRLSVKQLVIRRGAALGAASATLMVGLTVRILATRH
Procedure: as §1, §2, §5, §4

[10] = target: OCT1 (Homo sapiens, UniProt O15245); settings: 2.5 μM, 2 min, HEK293
Sequence of OCT1 (O15245 whole entry): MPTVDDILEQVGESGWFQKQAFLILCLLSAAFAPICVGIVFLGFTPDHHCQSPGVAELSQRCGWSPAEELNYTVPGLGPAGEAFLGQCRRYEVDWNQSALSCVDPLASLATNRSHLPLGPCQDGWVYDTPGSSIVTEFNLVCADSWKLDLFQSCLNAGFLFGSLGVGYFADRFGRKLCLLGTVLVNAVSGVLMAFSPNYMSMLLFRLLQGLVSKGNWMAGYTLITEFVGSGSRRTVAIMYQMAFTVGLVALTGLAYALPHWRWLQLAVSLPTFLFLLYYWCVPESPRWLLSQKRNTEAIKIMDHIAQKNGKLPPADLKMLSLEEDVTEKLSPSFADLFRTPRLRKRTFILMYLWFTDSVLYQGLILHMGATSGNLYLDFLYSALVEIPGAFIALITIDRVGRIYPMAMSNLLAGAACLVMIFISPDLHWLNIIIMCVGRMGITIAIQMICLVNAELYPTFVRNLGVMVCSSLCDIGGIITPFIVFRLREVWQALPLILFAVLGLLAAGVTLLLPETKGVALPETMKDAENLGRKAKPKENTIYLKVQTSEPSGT
Procedure: as §1, §2, §3, §4

[11] = target: OCT2 (Homo sapiens, UniProt O15244); settings: 2.5 μM, 2 min, HEK293
Sequence of OCT2 (O15244 whole entry): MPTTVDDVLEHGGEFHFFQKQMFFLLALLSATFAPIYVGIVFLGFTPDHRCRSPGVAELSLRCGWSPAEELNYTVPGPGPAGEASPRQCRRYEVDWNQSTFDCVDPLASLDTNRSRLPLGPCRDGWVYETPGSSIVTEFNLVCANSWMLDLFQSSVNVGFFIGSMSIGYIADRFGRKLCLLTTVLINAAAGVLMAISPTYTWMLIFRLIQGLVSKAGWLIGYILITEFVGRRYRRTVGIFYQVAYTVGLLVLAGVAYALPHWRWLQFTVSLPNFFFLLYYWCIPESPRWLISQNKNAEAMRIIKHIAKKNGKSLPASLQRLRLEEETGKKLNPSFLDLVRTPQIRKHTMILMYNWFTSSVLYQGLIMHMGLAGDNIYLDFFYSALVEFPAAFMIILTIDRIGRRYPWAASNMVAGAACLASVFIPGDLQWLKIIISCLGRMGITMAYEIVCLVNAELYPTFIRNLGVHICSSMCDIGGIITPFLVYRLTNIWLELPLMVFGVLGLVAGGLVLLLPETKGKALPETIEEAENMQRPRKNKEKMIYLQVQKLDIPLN
Procedure: as §1, §2, §3, §4

SMILES | Uptake by SLC22A15 (in words) [1] | Uptake by SLC19A2 (in words) [2] | Uptake data for SLC35G3, mean value (fold-increase over empty vector control) [3] | Uptake by SLC35E2A (in words) [4] | Clint (±SEM) [5] | Uptake by SLC35F3 (in words) [6] | Uptake by SLC35F4 (in words) [7] | Uptake by SLC47A1 (MATE1) (in words) [8] | Uptake by SLC47A2 (MATE2K) (in words) [9] | Uptake by OCT1 (in words) [10] | Uptake by OCT2 (in words) [11]
COc1ccc2c3c1O[C@H]1C(=O)CC[C@@]4(O)[C@@H](C2)N(C)CC[C@]314 [Oxycodone] | significantly increased the uptake | enhance cell uptake | 1.86 | relatively high activity | 3.44 (±1.49) μl × mg protein^-1 × min^-1 |  |  |  |  |  | 
Cc1ncc(C[n+]2csc(CCO)c2C)c(N)n1 [Thiamine] |  |  | 0.90 |  |  | no enhanced thiamine uptake | no enhanced thiamine transport |  |  |  | 
Nc1nc(=O)n([C@@H]2CS[C@H](CO)O2)cc1F [emtricitabine] |  |  |  |  |  |  |  | only transported by the MATEs | only transported by the MATEs | to some extent | to some extent
